Here are results for three compounds from article PMC11091967, “Silicon-Rhodamine Functionalized Evocalcet Probes Potently and Selectively Label Calcium Sensing Receptors In Vitro, In Vivo, and Ex Vivo” (ACS Pharmacology & Translational Science, 2024).

Series [1] relates to HCAR cells. The series is described as follows: Calcein AM viability assay, HCAR cells, 72 h. It is filed as cell-based, hamster. Conditions: for IC50: Cricetulus griseus. As for the experimental part:
(§1) The effects of EvoSiR probes and evocalcet on the viability of CCL39 and HCAR cells were evaluated using the Calcein AM assay as described by the manufacturer’s protocol (AAT Bioquest, 22002) with a working concentration of 10 μM. For the assay, cells were incubated in various concentrations of the compounds for 72 h. For positive controls, cells were incubated in culture media containing maximum 10% DMSO in a two-step dilution series for 72 h. Upon incubation in the Calcein AM solution for 1 h at 37 °C, the fluorescence readouts were retrieved using the Tecan GENios pro microplate reader (λex = 485 nm, λem = 535 nm, gain = 25 AU)

The test system of series [2] is CCL39 cells. In words: Calcein AM viability assay, CCL39 cells, 72 h. It is filed as cell-based, hamster. Here is the method:
as §1

A short description of series [3]: Photophysical characterization. More on the design: λex / λem: unit not given here. The format is physicochemical. Conditions: for quantum yield Φ: 94% ethanol, 750 nM, relative to Rhodamine B; for λem / λex: Table 1; for extinction coefficient ε: absorbance at 150–1350 nM, 1 cm cuvette.
The target of series [4] is T1, bovine serum albumin (BSA) (Bos taurus, UniProt P02769).
T1 construct: purchased Sigma A7906
T1 sequence (P02769 25-607): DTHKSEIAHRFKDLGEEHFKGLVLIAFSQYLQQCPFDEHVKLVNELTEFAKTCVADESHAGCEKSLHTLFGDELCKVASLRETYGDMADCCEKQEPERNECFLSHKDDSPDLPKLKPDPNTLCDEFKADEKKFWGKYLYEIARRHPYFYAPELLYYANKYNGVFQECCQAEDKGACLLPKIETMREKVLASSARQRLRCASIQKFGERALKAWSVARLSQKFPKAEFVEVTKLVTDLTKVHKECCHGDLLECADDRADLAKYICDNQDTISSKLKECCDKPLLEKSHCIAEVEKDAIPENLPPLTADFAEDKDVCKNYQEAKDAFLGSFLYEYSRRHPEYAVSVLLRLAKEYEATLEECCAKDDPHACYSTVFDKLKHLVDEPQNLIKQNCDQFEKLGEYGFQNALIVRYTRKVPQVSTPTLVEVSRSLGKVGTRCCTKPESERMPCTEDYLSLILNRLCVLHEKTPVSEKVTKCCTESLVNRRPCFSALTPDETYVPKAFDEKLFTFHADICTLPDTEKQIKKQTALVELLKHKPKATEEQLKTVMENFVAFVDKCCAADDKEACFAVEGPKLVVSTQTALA
In words: Spectrofluorometric analysis of fluorogenicity upon BSA binding. The format is physicochemical. Particulars: for increase in absolute fluorescence upon addition of 1% BSA: 1% BSA compared to PBS. As for the experimental part: Spectrofluorometric measurements were carried out by using the Agilent Cary Eclipse instrument. The voltage of the photomultiplier tube (PMT) was set to 600 for EvoSiR4 and EvoSiR6, and for 500 for SiR (4). Fluorescence of the probes was measured at concentrations ranging from 30 to 3000 nM in PBS containing various amounts of bovine serum albumin (BSA) (Sigma, A7906). Quenching experiments for the calculation of BSA binding were performed by adding a 1:1 molar ratio of tannic acid dissolved in ddH2O (Sigma, 403040) to the solution prior to measuring fluorescence.

The test system of series [5] is hair cells of the neuromasts within the lateral line organ. The series is described as follows: In vivo labeling of neuromasts in zebrafish larvae. Conditions: 4–6 dpf larvae; for fold increase in fluorescence intensity within the neuromasts: co-labeling with DiAsp; for normalized fluorescence of the neuromasts to the background fluorescence, mean and standard deviation: neuromasts identified with DiAsp. Also on record: species or system zebrafish (Danio rerio). As for the experimental part:
For the neuromast labeling experiments, wild-type 4–6 days post fertilization (dpf) zebrafish larvae were incubated in 200 μL of E3 medium containing different doses of the SiR probes (500–5000 nM), 2.5 μM 4-(4-diethylaminostyryl)-1-methyl-pyridinium-iodid (DiAsp, Sigma, D3418), which specifically labels hair cells in the lateral line in 0.5% DMSO for 30 min (35). Next, washing and anesthesia were achieved by placing the larvae in a 35 mm imaging dish (MolBiTec, Imaging dish 1.5) which contained 500 μL of E3 medium with 168 mg/L MS-222 (Tricaine Mehanesulfonate, Sigma) for 10 min. After removing the solution, fish were side-embedded in the imaging dish using 500 μL of 0.75% low-melting temperature agarose (Sigma, A4018). Wide-field imaging was done using the Zeiss Axio Observer fluorescence microscope (LD A-Plan 10× objective, NA = 0.25), and confocal imaging was done using a Zeiss LSM 800 confocal fluorescence microscope (LD LCI Plan-Apochromat 25× objective, NA = 0.8).

The test system of series [6] is human parathyroid adenomas. The series is described as follows: Ex vivo labeling of surgically resected human parathyroid adenomas. Here is the method: The part of the study involving human tissues has been registered at clinicaltirals.gov and can be retrieved under the ID: NCT03831620. The study was approved by the ethics commission of canton Bern, Switzerland (KEKBE 2018–02218). Written informed consent was obtained from all patients. Human parathyroid tissues were surgically resected and were immediately put on dry ice and stored at −80 °C. The tissues were thawed at 4 °C and were washed with PBS thoroughly. The labeling of the tissues was achieved using 500 nM EvoSiR4 for 30 min in PBS containing 0.1% BSA. After labeling, the tissues were washed twice with PBS containing 0.1% BSA. For evocalcet competition experiments, the tissues were coincubated with EvoSiR4 and evocalcet in a 1:5 molar ratio for 30 min and then washed twice with PBS containing 0.1% BSA. The images were acquired using an IVIS Spectrum in vivo imaging system with a λex of 780 nm and λem of 840 nm for the autofluorescence (ICG channel) and with a λex of 650 nm and λem of 670 nm for the EvoSiR label (Cy5 channel).

Series [7] addresses T2, human CaSR (Homo sapiens, UniProt P41180).
T2 construct: host or cells: CCL39 hamster lung fibroblasts stably transfected (HCAR), Geneticin selection
T2 sequence (P41180 20-1078): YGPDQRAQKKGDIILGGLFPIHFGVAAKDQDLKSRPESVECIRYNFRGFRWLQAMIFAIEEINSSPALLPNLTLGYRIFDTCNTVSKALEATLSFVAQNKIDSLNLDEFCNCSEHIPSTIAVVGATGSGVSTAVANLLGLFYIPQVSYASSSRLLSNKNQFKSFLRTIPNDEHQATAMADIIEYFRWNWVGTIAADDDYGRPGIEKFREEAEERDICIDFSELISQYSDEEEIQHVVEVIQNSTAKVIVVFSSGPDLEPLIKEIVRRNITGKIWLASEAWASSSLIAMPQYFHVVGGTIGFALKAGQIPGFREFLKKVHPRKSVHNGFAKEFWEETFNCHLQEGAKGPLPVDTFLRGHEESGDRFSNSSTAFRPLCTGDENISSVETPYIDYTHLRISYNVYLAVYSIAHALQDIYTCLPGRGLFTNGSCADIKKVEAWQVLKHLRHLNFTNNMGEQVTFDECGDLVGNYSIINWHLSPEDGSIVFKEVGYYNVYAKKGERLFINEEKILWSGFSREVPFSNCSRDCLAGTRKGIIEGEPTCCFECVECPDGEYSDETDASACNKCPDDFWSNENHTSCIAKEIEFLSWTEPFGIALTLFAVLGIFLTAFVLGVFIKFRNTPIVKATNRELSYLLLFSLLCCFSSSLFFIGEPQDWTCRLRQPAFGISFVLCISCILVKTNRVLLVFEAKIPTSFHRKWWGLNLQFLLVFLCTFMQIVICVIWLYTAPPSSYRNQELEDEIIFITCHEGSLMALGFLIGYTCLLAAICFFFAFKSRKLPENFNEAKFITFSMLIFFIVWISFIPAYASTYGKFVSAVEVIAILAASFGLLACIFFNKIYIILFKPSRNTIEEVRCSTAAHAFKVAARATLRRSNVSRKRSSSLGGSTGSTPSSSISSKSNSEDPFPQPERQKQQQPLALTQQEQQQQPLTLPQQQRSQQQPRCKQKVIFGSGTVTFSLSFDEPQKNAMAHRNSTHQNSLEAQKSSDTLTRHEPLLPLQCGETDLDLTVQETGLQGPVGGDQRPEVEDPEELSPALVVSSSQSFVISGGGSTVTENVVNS
The series is described as follows: FLIPR-based functional CaSR calcium assay in HCAR cells. It is filed as cell-based. Particulars: 5 min incubation of HCAR cells, 0.1% BSA.

Entries after “also recorded” stand apart in the source; their conditions may differ.

Broadly, the IC50 is the concentration that gives 50% inhibition. A word on the EC50: it is the midpoint of the concentration-response curve. In the case of `Cc1cc(C(=O)NCCCCNC(=O)Cc2ccc(N3CC[C@H](N[C@H](C)c4cccc5ccccc45)C3)cc2)ccc1C1=C2C=CC(=[N+](C)C)C=C2[Si](C)(C)c2cc(N(C)C)ccc21` [EvoSiR4], in series [1], the “effect on viability at 50 μM” value was “significantly reduced” and the concentration for half-maximal inhibition (IC50) is 27.3 ± 2.3 µM. Besides, in series [2], the half-inhibitory concentration (IC50) was 36 ± 3.8 µM and the “effect on viability at 50 μM” value is “significantly reduced”. In series [3], the “fluorescence lifetime τ” value was determined as 2.43 ± 0.164 ns, the “quantum yield Φ” value was 0.288, the λem worked out at 670 and the λex was 650. The “extinction coefficient ε” value in series [3] is on record as 14,175 M^–1 cm^–1. Moreover, in series [4], the “fold increased fluorescence in 0.1% BSA compared to PBS” value is 4 fold and the “increase in absolute fluorescence upon addition of 1% BSA” value is on record as 400%. Besides, in series [5], the “fold increase in fluorescence intensity within the neuromasts” value turned out to be 5.7 fold; the “normalized fluorescence of the neuromasts to the background fluorescence, mean and standard deviation” value was 5.71 ± 4.4. The “concentration above which marked increase in tissue fluorescence” value in series [6] (650 nm excitation) is recorded as above 500 nM. Further, the EC50 in series [7] (EC50, 1× wash, 1× wash) came out at 0.38 ± 0.24 µM. Further, the EC50 in series [7] (EC50, 3× wash, 3× wash) was determined as 0.62 ± 0.31 µM. For the same compound, the EC50 in series [7] (EC50, 5× wash, 5× wash) was determined as 0.33 ± 0.21 µM. In addition, the 50% effective concentration (EC50) in series [7] (EC50, no wash, no wash) stood at 0.037 ± 0.008 µM.
In the case of `Cc1cc(C(=O)NCCCCCCNC(=O)Cc2ccc(N3CC[C@H](N[C@H](C)c4cccc5ccccc45)C3)cc2)ccc1C1=C2C=CC(=[N+](C)C)C=C2[Si](C)(C)c2cc(N(C)C)ccc21` [EvoSiR6], in series [1], the “effect on viability at 50 μM” value is “significantly reduced” and the 50% inhibitory concentration (IC50) is 26 ± 2.3 µM. For the same compound, in series [2], the 50% inhibitory concentration (IC50) is 36 ± 6 µM and the “effect on viability at 50 μM” value is “significantly reduced”. Besides, in series [3], the “fluorescence lifetime τ” value amounted to 2.33 ± 0.135 ns, the “quantum yield Φ” value was 0.278, the λem stood at 670 and the λex amounted to 650. In addition, the “extinction coefficient ε” value in series [3] is on record as 16,601 M^–1 cm^–1. For the same compound, in series [4], the “fold increased fluorescence in 0.1% BSA compared to PBS” value is listed as 1.8 fold and the “increase in absolute fluorescence upon addition of 1% BSA” value was determined as 250%. For the same compound, in series [5], the “fold increase in fluorescence intensity within the neuromasts” value worked out at 5.6 fold; the “normalized fluorescence of the neuromasts to the background fluorescence, mean and standard deviation” value came to 5.6 ± 3.1.
Turning to `C[C@@H](N[C@H]1CCN(c2ccc(CC(=O)O)cc2)C1)c1cccc2ccccc12` [evocalcet], the “concentration below which no effect on viability” value in series [1] and in series [2] was below 50 µM in each case. Moreover, the “effect of preincubating the BSA solution with evocalcet on EvoSiR4 fluorescence” value in series [4] (evocalcet 30–6000 nM, 350 nM EvoSiR4) is on record as “No significant decrease; also recorded: no significant difference”. Besides, in series [6] (500 nM EvoSiR4 co-administered with 2.5 μM evocalcet), the “decrease in tissue fluorescence upon evocalcet competition” value was 64%.
